Values after ≈ are worked out from the molar mass of the structure shown. Like-named read-outs stand apart in the source and are kept apart here.
Columns and labels:
[1] = test system: proliferating hemangioma cells; assay: Experiment 7: different ACEi and beta blockers on one primary cell line, MTT; format: cell-based, human; details: for Results Summary: 72 hours, one cell line; for inhibition of proliferating hemangioma cells: 1 μM and 10 μM; for inhibition at 1 µM / inhibition at 10 µM: Homo sapiens, 72 h, read-out: Inhibition vs. Cells + Adjuvant at 72 Hours
Procedure: (§1) An in vitro cell culture model of infantile hemangioma was developed to assess the impact of renin-angiotensin system inhibitors on cellular proliferation. A primary cell line of proliferating infantile hemangioma cells, including haemangioma stem cells, was derived from a tissue biopsy obtained from patients during the proliferating phase of the disease. The primary cell lines are cultured in 25 cm^2 flasks using standard culture media and conditions. The cultured cells are used to seed 96-well plates with a seed cell concentration of 2500 or 5000 cells per well, with additional culture media (200 μL). All studies are performed in triplicate.
The plates are incubated overnight to allow cell adherence to the wells. The wells are photographed to confirm cell adherence and confluency. The appropriate drug(s) to be examined are subsequently added to the wells. […] The media is aspirated from each well and stored frozen for possible future analyses. Media is added to the wells and an MTT determination is undertaken according to standard protocols.
(§2) From the triplicate incubations of each drug concentration at each time, as well as for all controls, the mean±standard deviation is calculated. The net survival (optical density value) is calculated by subtracting the appropriate blank mean value from each cell culture. From the MTT data, the percentage of survival of cells in the presence of each concentration of drug after each time of culturing is determined.
Briefly, cells were seeded in 96-well plates at concentrations of 2500 cells/well in triplicate for each drug and drug combination. […] All plates were performed in triplicate. Beta blockers used in the study were (±)-propranolol, R-propranolol, S-propranolol, timolol, and betaxalol.

[2] = test system: proliferating hemangioma cells; assay: Example 5: R- and S-beta blockers alone and with cilazapril, MTT; format: cell-based, human
Procedure: An in vitro cell culture model of infantile hemangioma was developed to assess the impact of renin-angiotensin system inhibitors on cellular proliferation. A primary cell line of proliferating infantile hemangioma cells, including haemangioma stem cells, was derived from a tissue biopsy obtained from patients during the proliferating phase of the disease. The primary cell lines are cultured in 25 cm^2 flasks using standard culture media and conditions. The cultured cells are used to seed 96-well plates with a seed cell concentration of 2500 or 5000 cells per well, with additional culture media (200 μL). All studies are performed in triplicate. The plates are incubated overnight to allow cell adherence to the wells. The wells are photographed to confirm cell adherence and confluency. The appropriate drug(s) to be examined are subsequently added to the wells. After 24 hours, one set of plates (experimental and blank) is stopped. The media is aspirated from each well and stored frozen for possible future analyses. Media is added to the wells and an MTT determination is undertaken according to standard protocols. This is repeated at 48 and 72 hours. From the triplicate incubations of each drug concentration at each time, as well as for all controls, the mean±standard deviation is calculated. The net survival (optical density value) is calculated by subtracting the appropriate blank mean value from each cell culture. From the MTT data, the percentage of survival of cells in the presence of each concentration of drug after each time of culturing is determined. The experimental protocol was performed as per Example 1. Briefly, cells were seeded in 96-well plates at concentrations of 2500 cells/well in triplicate for each drug and drug combination. Drug(s) were added to each well 24 hours after seeding and re-dosed every 24 hours. Cell viability was assessed by MTT assay after 24, 48, and 72 hours. All plates were performed in triplicate. […] Timolol and propranolol were used as model beta blockers and cilazapril as a model ACE inhibitor.

[3] = test system: proliferating hemangioma cell lines (n=9); assay: Example 6: single agents and combinations on nine primary cell lines, MTT, CompuSyn combination index; format: cell-based, human; details: for dose-response across all cell lines: 1 to 10 μM, 72 hours, n=9
Procedure: as §1
The plates are incubated overnight to allow cell adherence to the wells. The wells are photographed to confirm cell adherence and confluency. The appropriate drug(s) to be examined are subsequently added to the wells. After 24 hours, one set of plates (experimental and blank) is stopped. The media is aspirated from each well and stored frozen for possible future analyses. Media is added to the wells and an MTT determination is undertaken according to standard protocols. This is repeated at 48 and 72 hours.
as §2
A study was undertaken using combinations of ACE inhibitors, beta blockers and angiotensin II type 2 receptor blockers to inhibit proliferating hemangioma cells. […] Patient histories pertaining to each cell line is described in Table 5.
The experimental protocol was performed as per Example 1. Briefly, cells were seeded in 96-well plates at concentrations of 2500 cells/well in triplicate for each drug and drug combination. Drug(s) were added to each well 24 hours after seeding and re-dosed every 24 hours. Cell viability was assessed by MTT assay after 24, 48, and 72 hours. All plates were performed in triplicate. Drugs were assessed alone and in combination, as described in Table 6. Propranolol was used as a model beta blocker, cilazapril as a model ACE inhibitor, and SMM02 (L-159686) as a model AT2Ri. Synergy was measured using the CompuSyn open-source software protocol for quantifying synergism and antagonism that uses the median-effect equation and mass-action laws to generate a combination index (www.compusyn.com). Synergism, additive effects and antagonism are defined as a CI<1, CI=1, and CI>1, respectively.

[4] = test system: proliferating infantile hemangioma cells derived from multiple patients (n=5); assay: Example 4: single agents and combinations on five patient-derived cell lines, MTT; format: cell-based, human; details: for Individual Responders at 72 Hours with ≥30% Inhibition vs. Cells + Adjuvant: responders/cell lines; for Results Summary: 72 hours, n=5 cell lines; for inhibition of all five patient-derived haemangioma cell lines / Estimated Optimal Dosage Range in vitro: single agent
Procedure: An in vitro cell culture model of infantile hemangioma was developed to assess the impact of renin-angiotensin system inhibitors on cellular proliferation. A primary cell line of proliferating infantile hemangioma cells, including haemangioma stem cells, was derived from a tissue biopsy obtained from patients during the proliferating phase of the disease. The primary cell lines are cultured in 25 cm^2 flasks using standard culture media and conditions. The cultured cells are used to seed 96-well plates with a seed cell concentration of 2500 or 5000 cells per well, with additional culture media (200 μL). All studies are performed in triplicate. The plates are incubated overnight to allow cell adherence to the wells. The wells are photographed to confirm cell adherence and confluency. The appropriate drug(s) to be examined are subsequently added to the wells. After 24 hours, one set of plates (experimental and blank) is stopped. The media is aspirated from each well and stored frozen for possible future analyses. Media is added to the wells and an MTT determination is undertaken according to standard protocols. This is repeated at 48 and 72 hours. From the triplicate incubations of each drug concentration at each time, as well as for all controls, the mean±standard deviation is calculated. The net survival (optical density value) is calculated by subtracting the appropriate blank mean value from each cell culture. From the MTT data, the percentage of survival of cells in the presence of each concentration of drug after each time of culturing is determined. […] The experimental protocol was performed as per Example 1. Briefly, cells were seeded in 96-well plates at a concentration of 2500 cells/well in triplicate for each drug and drug combination. Drug(s) were added to each well 24 hours after seeding and re-dosed every 24 hours. Cell viability was assessed by MTT assay after 24, 48, and 72 hours. All plates were performed in triplicate. Drugs were assessed alone and in combination as described in Table 3.

[5] = cited from earlier work; for Half life: in vivo; for Half life: short or long acting: in words
proliferating IH = details: cited from earlier work
[6] = cited from earlier work
[7] = cited from earlier work; remark: listed apart in the source
[8] = cited from earlier work; for Log P: Table 1

CC(C)NC[C@@H](O)COc1cccc2ccccc12 [R(+) Propranolol, R-propranolol]
Estimated Optimal Dosage Range [1]: 1 to 10 µM
Inhibition vs. Cells + Adjuvant at 72 Hours ([1]; 1 μM): 1 μM - No - 1.59%
Inhibition vs. Cells + Adjuvant at 72 Hours ([1]; 10 μM): 10 μM - Response - 50.35%
Results Summary [1]: Responder
individual isomers compared with the racemic mixture ([2]; alone): as effective alone as the racemic mixture
attenuating hemangioma cell proliferation, propranolol vs timolol enantiomers ([2]; particularly at 1-5 μM): superior to R- and S-timolol
dose-response across all cell lines [3]: typical dose-response

CCCCc1nc(Cl)c(CO)n1Cc1ccc(-c2ccccc2-c2nn[nH]n2)cc1 [Losartan]
Individual Responders at 72 Hours with ≥30% Inhibition vs. Cells + Adjuvant ([4]; 1 μM): 1 μM - 0/5
Individual Responders at 72 Hours with ≥30% Inhibition vs. Cells + Adjuvant ([4]; 10 μM): 10 μM - 0/5
Results Summary [4]: Non-Responder
inhibition of all five patient-derived haemangioma cell lines [4]: not

C[C@H](N[C@@H](CCc1ccccc1)C(=O)O)C(=O)N1CCC[C@H]1C(=O)O [enalaprilat]
Half life [5]: 11 h (enalaprilat)

C[C@H](CS)C(=O)N1CCC[C@H]1C(=O)O [Captopril]
patients with response scored dramatic (proliferating IH; n of eight patients): 3
patients with response scored medium (proliferating IH; n of eight patients): 2
patients with response scored slow (proliferating IH; n of eight patients): 3
effect on proliferating IH (proliferating IH; oral 1.5 mg/kg daily, eight patients): positive effect in all patients
rebound growth after treatment ceased (proliferating IH; treatment ceased after 14 months): no rebound growth
Solubility [6]: 130 mg/mL (≈ 598 mM)

O=C(O)[C@@H]1CN(C(=O)N(c2ccccc2)c2ccccc2)CCN1C(=O)N(c1ccccc1)c1ccccc1 [SMM02, (S)-1,4-bis(N,N-diphenylcarbamoyl)piperazine-2-carboxylic acid]
Individual Responders at 72 Hours with ≥30% Inhibition vs. Cells + Adjuvant ([4]; 1 μM): 1 μM - 0/4
Individual Responders at 72 Hours with ≥30% Inhibition vs. Cells + Adjuvant ([4]; 10 μM): 10 μM - 5/5
Individual Responders at 72 Hours with ≥30% Inhibition vs. Cells + Adjuvant ([4]; 100 μM): 100 μM - 5/5
Results Summary [4]: Responder
Estimated Optimal Dosage Range in vitro [4]: 1 to 10 µM
inhibition of all five patient-derived haemangioma cell lines [4]: significantly inhibited
dose-response across all cell lines [3]: non-linear dose-response
threshold concentration ([3]; single agent, consistent inhibition above it): 2.5 µM

C[C@H](N[C@@H](CCc1ccccc1)C(=O)O)C(=O)N1Cc2ccccc2C[C@H]1C(=O)O [Quinaprilat, quinaprilat]
Half life [5]: 3 h (quinaprilat)

CCOC(=O)[C@H](CCc1ccccc1)N[C@@H](C)C(=O)N1Cc2ccccc2C[C@H]1C(=O)O [Quinapril]
inhibition of proliferating hemangioma cells [1]: good and similar level of inhibition
Results Summary [1]: Responder
inhibition at 1 µM ([1]; 1 μM): 4.87%
inhibition at 10 µM ([1]; 10 μM): 62.3%
pKa [7]: 3.7
pKa ([7]; second value): 5.2
Log P [8]: 3.2
log P [8]: 3.2
Half life: short or long acting [5]: Short acting

C[C@H](N[C@@H](CCc1ccccc1)C(=O)O)C(=O)N1[C@H](C(=O)O)C[C@H]2CCCC[C@@H]21 [Trandolaprilat, trandolaprilat]
Half life [5]: 10 h

CCOC(=O)[C@H](CCc1ccccc1)N[C@@H](C)C(=O)N1CCC[C@H]1C(=O)O [Enalapril]
inhibition of proliferating hemangioma cells [1]: good and similar level of inhibition
Results Summary [1]: Responder
inhibition at 1 µM ([1]; 1 μM): 1.55%
inhibition at 10 µM ([1]; 10 μM): 67.9%
pKa [7]: 2.97
pKa ([7]; second value): 5.35
Log P [8]: 0.07
Half life: short or long acting [5]: Long acting

CC(C)NCC(O)COc1ccc(CCOCC2CC2)cc1 (stereo not shown) [Betaxolol]
inhibition of proliferating hemangioma cells [1]: no response
Results Summary [1]: Non-
inhibition at 1 µM ([1]; 1 μM): 2.8%
inhibition at 10 µM ([1]; 10 μM): < 0%

COc1ccc2c(c1OCc1ccccc1)C[C@@H](C(=O)O)N(C(=O)C(c1ccccc1)c1ccccc1)C2 [EMA401, (S)-5-(benzyloxy)-2-(2,2-diphenylacetyl)-6-methoxy-1,2,3,4-tetrahydroisoquinoline-3-carboxylic acid]
Individual Responders at 72 Hours with ≥30% Inhibition vs. Cells + Adjuvant ([4]; 1 μM): 1 μM - ¼
Individual Responders at 72 Hours with ≥30% Inhibition vs. Cells + Adjuvant ([4]; 10 μM): 10 μM - 4/5
Individual Responders at 72 Hours with ≥30% Inhibition vs. Cells + Adjuvant ([4]; 100 μM): 100 μM - 5/5
Results Summary [4]: Responder
Estimated Optimal Dosage Range in vitro [4]: 5 to 25 µM
inhibition of all five patient-derived haemangioma cell lines [4]: significantly inhibited

CCOC(=O)[C@H](CCc1ccccc1)N[C@@H](C)C(=O)N1[C@H](C(=O)O)C[C@H]2CCCC[C@@H]21 [Trandolapril]
inhibition of proliferating hemangioma cells [1]: good and similar level of inhibition
Results Summary [1]: Responder
inhibition at 1 µM ([1]; 1 μM): 0.63%
inhibition at 10 µM ([1]; 10 μM): 67.8%
pKa [7]: 3.8
pKa ([7]; second value): 5.2
Log P [8]: 3.5
log P [8]: 3.5
Half life [5]: 6 h
Half life: short or long acting [5]: Long acting

C[C@H](N[C@@H](CCc1ccccc1)C(=O)O)C(=O)N1[C@H](C(=O)O)C[C@@H]2CCC[C@@H]21 [Ramiprilat, ramiprilat]
Half life [5]: 13 to 17 h

O=C(O)CN1C(=O)[C@@H](N[C@@H](CCc2ccccc2)C(=O)O)CCc2ccccc21 [benazeprilat]
Half life [5]: 10 to 11 h

From patent US20230090708A1, “METHODS AND COMPOSITIONS FOR THE TREATMENT OF HEMANGIOMA” (MASSEY VENTURES LIMITED, priority 2020, published 2023)
